Experimental findings from US8686043B2, “Heterocyclic sulfonamides, uses and pharmaceutical compositions thereof” (Pfizer Inc., priority 2009, dated 2014) are described below.

The first assay relates to AMPA receptors. The experiment in a line: AMPA ES Cell FLIPR Screen (AMPA Potentiator Assay). The format is cell-based, murine. The settings on record: ES cell-derived neurons, FLIPR (Fluo-4), 32 μM AMPA challenge; values marked * are the geometric mean of 2-5 EC50 determinations. An excerpt: Growth and Maintenance of ES Cells
Murine ES cell line E14, with a targeted mutation in the Sox1 gene and a neuroectodermal marker that offers G418 resistance when the Sox1 gene is expressed (Stem Cell Sciences, West Mains Road, Edinburgh, Scotland EH9 3JQ) may be used in all experiments. ES cells may be maintained undifferentiated as previously described (Methods For The Isolation And Maintenance Of Murine Embryonic Stem Cells; Roach-M-L, McNeish-J-D., Methods in Molecular Biology, 185, 1-16 (2002)). Briefly, ES cells may be grown in stem cell culture media comprising a base medium of Knockout™ D-MEM (Invitrogen 5791 Van Allen Way, Carlsbad, Calif. USA 92008), supplemented with 15% ES qualified Fetal Bovine Serum (FBS) (Invitrogen), 0.2 mM L-Glutamine (Invitrogen), 0.1 mM MEM non-essential amino acids (Invitrogen), 30 μg/ml Gentamicin […] (Invitrogen), 1000 U/ml ESGRO™ (CHEMICON International, Inc., 28820 Single Oak Drive, Temecula, Calif. 92590) and 0.1 mM 2-mercaptoethanol (Sigma, 3050 Spruce St., St. Louis, Mo. 63103). ES cells may then be plated on gelatin-coated dishes (BD Biosciences, 2350 Qume Drive, San Jose, Calif. 95131), wherein the media is changed daily and the cells dissociated with 0.05% Trypsin EDTA (Invitrogen) every other day.
Neural In Vitro Differentiation of ES Cells
Embryoid Body Formation: Prior to embryoid body (EB) formation the ES cells may be weaned from FBS onto Knockout Serum Replacement™ (KSR) (Invitrogen). To form EBs, ES cells may be dissociated into a single cell suspension, then 3×10^6 cells plated in bacteriology dishes (Nunc 4014) and grown as a suspension culture in NeuroEB-I medium that consisted of Knockout™ D-MEM (Invitrogen), supplemented with 10% KSR (Invitrogen), 0.2 mM L-Glutamine (Invitrogen), 0.1 mM MEM non-essential amino acids (Invitrogen), 30 μg/ml Gentamicin (Invitrogen), 1000 U/ml ESGRO™ (CHEMICON International, Inc.), 0.1 mM 2-mercaptoethanol (Sigma) and 150 ng/ml Transferrin (Invitrogen). The plates may then be put on a Stovall Belly Button™ shaker in an atmospheric oxygen incubator. The media may be changed on day 2 of EB formation with NeuroEB-I and on day 4 with NeuroEB-II (NeuroEB-I plus 1 μg/ml mNoggin (R&D Systems, 614 McKinley Place N.E. Minneapolis, Minn. 55413)
Neuronal Precursor Selection and Expansion: On day 5 of EB formation, EBs may be dissociated with 0.05% Trypsin EDTA, and 4×10^6 cells/100 mm dish may then be plated on Laminin coated tissue culture dishes in NeuroEB-II-G418 medium that consisted of a base medium of a 1:1 mixture of D-MEM/F12 supplemented with N2 supplements and NeuroBasal Medium supplemented with B27(I ASSUME THIS IS THE VITAMIN) supplement and 0.1 mM L-Glutamine (all from Invitrogen). The base medium may then be supplemented with 10 ng/ml bFGF (Invitrogen), 1 μg/ml mNoggin, 500 ng/ml SHH-N (IS THIS SONIC HEDGEHOG FROM ProSpecBio Rehovot Science Park, P.O. BOX 398, Rehovot 76103, Israel), 100 ng/ml FGF-8b (R&D Systems), 1 μg/ml Laminin and 200 μg/ml G418 (Invitrogen) for selection of neuronal precursors expressing Sox-1. The plates may then be put in an incubator containing 2% oxygen and maintained in these conditions. During the 6-day selection period, the NeuroEB-II ([…]) media should be changed daily. On day 6, the surviving neuronal precursor foci may then be dissociated with 0.05% Trypsin EDTA and the cells plated at a density of 1.5×10^6 cells/100 mm Laminin coated dish in Neuroll ([…])-G418 medium. The cells may then be dissociated every other day for expansion, and prepared for cryopreservation at passage 3 or 4. The cryopreservation medium typically contains 50% KSR, 10% dimethyl sulfoxide (DMSO) (Sigma) and 40% Neurol([…])-G418 medium. Neuronal precursors may be cryopreserved at a concentration of 4×10^6 cells/ml and 1 ml/cryovial in a controlled rate freezer overnight then transferred to an ultra-low freezer or liquid nitrogen for long-term storage. […]
For `CC(C)S(=O)(=O)N[C@H]1COC[C@H]1Oc1ccc(-c2ccccc2C#N)cc1` [Example 3, N-{(3S,4S)-4-[(2′-cyanobiphenyl-4-yl)oxy]tetrahydrofuran-3-yl}propane-2-sulfonamide], the EC50 is 21.7 nM.
As to `CC(C)S(=O)(=O)N[C@H]1COC[C@H]1Oc1ccc(-c2ccc(C#N)s2)cc1` [Example 4, N-{(3S,4S)-4-[4-(5-cyano-2-thienyl)phenoxy]tetrahydrofuran-3-yl}propane-2-sulfonamide], the EC50 was 1790 nM.
`CC(C)S(=O)(=O)N[C@H]1CCC[C@H]1Oc1ccc(-c2ccccc2C#N)cc1` [Example 5, N-{(1S,2R)-2-[(2′-cyanobiphenyl-4-yl)oxy]cyclopentyl}propane-2-sulfonamide]: the EC50 turned out to be 535 nM.
Take `CC(C)S(=O)(=O)N[C@H]1CCC[C@H]1Oc1ccc(-c2ccc(C#N)s2)cc1` [Example 6, N-{(1S,2R)-2-[4-(5-cyano-2-thienyl)phenoxy]cyclopentyl}propane-2-sulfonamide]: the EC50 amounted to 1540 nM.
Take `CC(C)S(=O)(=O)N[C@H]1CCCC[C@H]1Oc1ccc(-c2ccccc2C#N)cc1` [Example 7, N-{(1S,2R)-2-[(2′-cyanobiphenyl-4-yl)oxy]cyclohexyl}propane-2-sulfonamide]: the half-maximal effective concentration (EC50) is 157 nM.
Same read-out and setting: in the case of `CC(C)S(=O)(=O)N[C@H]1COC[C@H]1Oc1ccc(-c2ccc(O)cc2)cc1` [Example 18, N-{(3S,4S)-4-[(4′-hydroxybiphenyl-4-yl)oxy]tetra hydrofuran-3-yl}propane-2-sulfonamide] it was 1180 nM; in that of `CCOc1cc(F)ccc1-c1ccc(O[C@@H]2COC[C@@H]2NS(=O)(=O)C(C)C)cc1` [Example 19, N-{(3S,4S)-4-[(2′-ethoxy-4′-fluorobiphenyl-4-yl)oxy]tetra hydrofuran-3-yl}propane-2-sulfonamide], 248 nM.
Take `Cc1cc(F)ccc1-c1ccc(O[C@@H]2COC[C@@H]2NS(=O)(=O)C(C)C)cc1` [Example 20, N-{(3S,4S)-4-[(4′-fluoro-2′-methylbiphenyl-4-yl)oxy]tetra hydrofuran-3-yl}propane-2-sulfonamide]: the EC50 worked out at 729 nM.
For `CC(C)S(=O)(=O)N[C@H]1COC[C@H]1Oc1ccc(-c2ccc(F)cc2F)cc1` [Example 21, N-{(3S,4S)-4-[(2′,4′-difluorobiphenyl-4-yl)oxy]tetra hydrofuran-3-yl}propane-2-sulfonamide], the EC50 worked out at 239 nM.
In the case of `CC(C)S(=O)(=O)N[C@H]1COC[C@H]1Oc1ccc(-c2cncnc2)cc1` [Example 22, N-[(3S,4S)-4-(4-pyrimidin-5-ylphenoxy)tetrahydrofuran-3-yl]propane-2-sulfonamide], the EC50 is 861 nM.
On the same count and under the same terms, in the case of `CCOc1ccccc1-c1ccc(O[C@@H]2CCC[C@@H]2NS(=O)(=O)C(C)C)cc1` [Example 25, N-{(1S,2R)-2-[(2′-ethoxybiphenyl-4-yl)oxy]cyclopentyl} propane-2-sulfonamide] it was 2960 nM.
As to `CC(C)S(=O)(=O)N[C@H]1CCC[C@H]1Oc1ccc(-c2ccccc2)cc1` [Example 26, N-[(1S,2R)-2-(biphenyl-4-yloxy)cyclopentyl] propane-2-sulfonamide], the EC50 was found to be 1120 nM.
On the same count and under the same terms, in the case of `CC(C)S(=O)(=O)N[C@H]1CCC[C@H]1Oc1ccc(N2CCCC2)cc1` [Example 27, N-[(1S,2R)-2-(4-pyrrolidin-1-ylphenoxy)cyclopentyl] propane-2-sulfonamide] it was 857 nM.
Take `CC(C)S(=O)(=O)N[C@H]1CCC[C@H]1Oc1ccc(-c2ccc(C(=O)O)cc2C#N)cc1` [Example 28, 2-cyano-4′-({(1R,2S)-2-[(isopropylsulfonyl)amino]cyclopentyl}oxy) biphenyl-4-carboxylic acid]: the EC50 came out at 651 nM.
As to `CC(C)S(=O)(=O)N[C@H]1CCC[C@H]1Oc1ccc(-c2ccccc2)c(F)c1` [Example 29, N-{(1S,2R)-2-[(2-fluorobiphenyl-4-yl)oxy]cyclopentyl} propane-2-sulfonamide], the EC50 amounted to 521 nM.
`CC(C)S(=O)(=O)N[C@H]1CCC[C@H]1Oc1ccc(-c2ccc(F)cc2C#N)c(F)c1` [Example 30, N-{(1S,2R)-2-[(2′-cyano-2,4′-difluorobiphenyl-4-yl)oxy]cyclopentyl}propane-2-sulfonamide]: the EC50 worked out at 349 nM.
As to `CCOc1ccccc1-c1ccc(O[C@@H]2CCC[C@@H]2NS(=O)(=O)C(C)C)cc1F` [Example 31, N-{(1S,2R)-2-[(2′-ethoxy-2-fluorobiphenyl-4-yl)oxy]cyclopentyl} propane-2-sulfonamide], the EC50 worked out at 327 nM.
`CC(C)S(=O)(=O)N[C@H]1CCC[C@H]1Oc1ccc(-c2ccc(C#N)s2)c(F)c1` [Example 32, N-{(1S,2R)-2-[4-(5-cyano-2-thienyl)-3-fluorophenoxy]cyclopentyl} propane-2-sulfonamide]: the EC50 amounted to 1400 nM.
With `CC(C)S(=O)(=O)N[C@H]1CCC[C@H]1Oc1ccc(-c2cccc(C(=O)NC3CC3)c2)c(F)c1` [Example 33, N-cyclopropyl-2′-fluoro-4′-({(1R,2S)-2-[(isopropylsulfonyl)amino]cyclopentyl}oxy) biphenyl-3-carboxamide], the EC50 worked out at 623 nM.
Take `CC(C)S(=O)(=O)N[C@H]1CCC[C@H]1Oc1ccc(-c2ccc(CCNS(C)(=O)=O)cc2)c(F)c1` [Example 34, N-{(1S,2R)-2-[(2-fluoro-4′-{2-[(methylsulfonyl)amino]ethyl}biphenyl-4-yl)oxy]cyclopentyl} propane-2-sulfonamide]: the EC50 was found to be 3220 nM.
Consider `CC(C)S(=O)(=O)N[C@H]1CCCC[C@H]1Oc1ccc(-c2ccccc2C#N)c(F)c1` [Example 35, N-{(1S,2R)-2-[(2′-cyano-2-fluorobiphenyl-4-yl)oxy]cyclohexyl} propane-2-sulfonamide], for which the EC50 worked out at 525 nM.
The same measure, in the same setting: with `CC(C)S(=O)(=O)N[C@H]1CCCC[C@H]1Oc1ccc(-c2ccc(F)cc2C#N)c(F)c1` [Example 36, N-{(1S,2R)-2-[(2′-cyano-2,4′-difluorobiphenyl-4-yl)oxy]cyclohexyl} propane-2-sulfonamide] the figure was 1610 nM; with `CC(C)S(=O)(=O)N[C@H]1CCCC[C@H]1Oc1ccc(-c2ccc(C#N)s2)c(F)c1` [Example 37, N-{(1S,2R)-2-[4-(5-cyano-2-thienyl)-3-fluorophenoxy]cyclohexyl} propane-2-sulfonamide], 1720 nM.
As for `CC(C)S(=O)(=O)N[C@H]1CCCC[C@H]1Oc1ccc(N2CCCC2)cc1` [Example 38, N-[(1S,2R)-2-(4-pyrrolidin-1-ylphenoxy)cyclohexyl] propane-2-sulfonamide], the EC50 turned out to be 327 nM.
On the same count and under the same terms, with `CCOc1ccccc1-c1ccc(O[C@@H]2CCCC[C@@H]2NS(=O)(=O)C(C)C)cc1` [Example 39, N-{(1S,2R)-2-[(2′-ethoxybiphenyl-4-yl)oxy]cyclohexyl} propane-2-sulfonamide] the figure was 1420 nM.
On to `CC(C)S(=O)(=O)N[C@H]1CCCC[C@H]1Oc1ccc(-c2ccccc2OCC(F)(F)F)nc1` [Example 40, N-[(1S,2R)-2-({6-[2-(2,2,2-trifluoroethoxy)phenyl]pyridin-3-yl}oxy)cyclohexyl] propane-2-sulfonamide], for which the EC50 came to 148 nM.

Still in this assay, the particulars now being: title compound versus its enantiomer.
Consider `CC(C)S(=O)(=O)N[C@H]1CCCC[C@H]1Oc1ccc(-c2ccccc2C#N)cc1` [Example 7, N-{(1S,2R)-2-[(2′-cyanobiphenyl-4-yl)oxy]cyclohexyl}propane-2-sulfonamide], for which the “biological activity improved over that of its enantiomer” value was > 150 times.

The same assay, now with this note: title compound versus its enantiomer prepared from the (1R,2S) bromide.
With `CC(C)S(=O)(=O)N[C@H]1CCC[C@H]1Oc1ccc(-c2ccccc2C#N)cc1` [Example 5, N-{(1S,2R)-2-[(2′-cyanobiphenyl-4-yl)oxy]cyclopentyl}propane-2-sulfonamide], the “potency compared with its enantiomer” value is “significantly more potent than its enantiomer”.
